Values quoted from earlier work as cited in patent US6855805B2 (priority 1999, dated 2005).

system: neuromuscular block; settings: dose mg/kg: Sux 1.0, Org 9847 1.5, Rocuronium 0.6, Mivacurium 0.2, Vecuronium 0.1, Cisatracurium 0.1

Point of comparison: `C[N+](C)(C)CCOC(=O)CCC(=O)OCC[N+](C)(C)C` [Sux, succinylcholine chloride], “Onset Time” value 60 s. Against it:
- COc1cc2c(cc1OC)[C@@H](Cc1cc(OC)c(OC)c(OC)c1)[N+](C)(CCCOC(=O)CC/C=C/CCC(=O)OCCC[N+]1(C)CCc3cc(OC)c(OC)cc3[C@H]1Cc1cc(OC)c(OC)c(OC)c1)CC2 (stereo partly drawn) [Mivacurium] — higher, 150 s
- COc1ccc(C[C@@H]2c3cc(OC)c(OC)cc3CC[N@+]2(C)CCC(=O)OCCCCCOC(=O)CC[N@@+]2(C)CCc3cc(OC)c(OC)cc3[C@H]2Cc2ccc(OC)c(OC)c2)cc1OC [Cisatracurium] — higher, 120 to 180 s
- C=CC[N+]1([C@H]2C[C@H]3[C@@H]4CC[C@H]5C[C@H](O)[C@@H](N6CCOCC6)C[C@]5(C)[C@H]4CC[C@]3(C)[C@H]2OC(C)=O)CCCC1 [Rocuronium] — higher, 80 s
- CC(=O)O[C@H]1C[C@@H]2CC[C@@H]3[C@H](CC[C@@]4(C)[C@H]3C[C@H]([N+]3(C)CCCCC3)[C@@H]4OC(C)=O)[C@@]2(C)C[C@@H]1N1CCCCC1 [Vecuronium] — higher, 120 to 180 s

Point of comparison: `CC(=O)O[C@H]1C[C@@H]2CC[C@@H]3[C@H](CC[C@@]4(C)[C@H]3C[C@H]([N+]3(C)CCCCC3)[C@@H]4OC(C)=O)[C@@]2(C)C[C@@H]1N1CCCCC1` [Vecuronium], “Recovery 25%” value 40 min. Against it:
- COc1cc2c(cc1OC)[C@@H](Cc1cc(OC)c(OC)c(OC)c1)[N+](C)(CCCOC(=O)CC/C=C/CCC(=O)OCCC[N+]1(C)CCc3cc(OC)c(OC)cc3[C@H]1Cc1cc(OC)c(OC)c(OC)c1)CC2 (stereo partly drawn) [Mivacurium] — 2-fold lower, 20 min
- COc1ccc(C[C@@H]2c3cc(OC)c(OC)cc3CC[N@+]2(C)CCC(=O)OCCCCCOC(=O)CC[N@@+]2(C)CCc3cc(OC)c(OC)cc3[C@H]2Cc2ccc(OC)c(OC)c2)cc1OC [Cisatracurium] — within 1.5-fold, 45 min
- C[N+](C)(C)CCOC(=O)CCC(=O)OCC[N+](C)(C)C [Sux, succinylcholine chloride] — lower, 5 to 7 min
- C=CC[N+]1([C@H]2C[C@H]3[C@@H]4CC[C@H]5C[C@H](O)[C@@H](N6CCOCC6)C[C@]5(C)[C@H]4CC[C@]3(C)[C@H]2OC(C)=O)CCCC1 [Rocuronium] — the same, 40 min

Point of comparison: `COc1cc2c(cc1OC)[C@@H](Cc1cc(OC)c(OC)c(OC)c1)[N+](C)(CCCOC(=O)CC/C=C/CCC(=O)OCCC[N+]1(C)CCc3cc(OC)c(OC)cc3[C@H]1Cc1cc(OC)c(OC)c(OC)c1)CC2` (stereo partly drawn) [Mivacurium], “Recovery 75%” value 27 min. Against it:
- COc1ccc(C[C@@H]2c3cc(OC)c(OC)cc3CC[N@+]2(C)CCC(=O)OCCCCCOC(=O)CC[N@@+]2(C)CCc3cc(OC)c(OC)cc3[C@H]2Cc2ccc(OC)c(OC)c2)cc1OC [Cisatracurium] — higher, 60 to 70 min
- C[N+](C)(C)CCOC(=O)CCC(=O)OCC[N+](C)(C)C [Sux, succinylcholine chloride] — 2.7-fold lower, 10 min
- C=CC[N+]1([C@H]2C[C@H]3[C@@H]4CC[C@H]5C[C@H](O)[C@@H](N6CCOCC6)C[C@]5(C)[C@H]4CC[C@]3(C)[C@H]2OC(C)=O)CCCC1 [Rocuronium] — 2.2-fold higher, 60 min
- CC(=O)O[C@H]1C[C@@H]2CC[C@@H]3[C@H](CC[C@@]4(C)[C@H]3C[C@H]([N+]3(C)CCCCC3)[C@@H]4OC(C)=O)[C@@]2(C)C[C@@H]1N1CCCCC1 [Vecuronium] — 2.2-fold higher, 60 min
